Measured values published in patent US20240050399A1, “PHARMACEUTICAL COMPOSITIONS, COMPRISING A COMBINATION OF SELECT CARRIERS AND […] ANTIPATHOGENS” (EpitoGenesis, Inc., priority 2020, published 2024).
Values after ≈ are worked out from the molar mass of the structure shown.

System: SARS-CoV-2 USA-WA1/2020
Test: Neutralization assay of SARS-CoV-2 with EGCG, quantified by Avicel plaque reduction assay on VeroE6 cells
Assay type: cell-based
Conditions: for IC50: normalized against control (virus in DMEM)

O=C(O[C@@H]1Cc2c(O)cc(O)cc2O[C@@H]1c1cc(O)c(O)c(O)c1)c1cc(O)c(O)c(O)c1 [EGCG, epigallocatechin gallate]
in vitro antiviral activity on vero cells infected with SARS-CoV-2 (FIG. 1, plaque reduction): strong in vitro antiviral activity
IC50 (dilution series 1): 42.65 µg/mL (≈ 93 µM)
IC50 (dilution series 2): 32.89 µg/mL (≈ 71.8 µM)
IC50 (dilution series 3): 36.09 µg/mL (≈ 78.7 µM)
